Results published in the pKa sets of Baltruschat and Czodrowski (2020).
“And” between values parts separate entries of the source, which are not always exact repeats. Identical values can stand only once.

Settings: basic group

Row | SMILES | pKa
1 | NCCC#CC#CCCC(=O)[O-] | 9.27
2 | O=C(O)c1nccs1 | 2.57
3 | Nc1ccc(S(=O)(=O)Nc2ccncn2)cc1 | 1.3
4 | CCN(CC)c1nnc(-c2ccccc2)s1 | 3.09
5 | Nc1ncc2ccccc2n1 | 4.8
6 | CCCCn1ccnc1 | 7.14
7 | C=CCC(C)(CN(CC)CC)OC(C)=O (stereo unspecified) | 9.85
8 | CC(C)(N)C(=O)O | 10.2
9 | Cn1ccc2ccccc2c1=O | -1.8
10 | O=C1[C@H]2C[C@H](CN3CCCC[C@@H]23)C2=CCCCN12 | 7.7
11 | CN(C)c1ccc(C=O)cc1 | 1.6
12 | CN(C)CCC[NH+](C)C | 7.73
13 | Cc1cnc2ccccc2n1 | 0.95
14 | Cc1n[nH]c2c(N)cccc12 | 3.18
15 | CC1([NH3+])C[C@]1(C)N (stereo partly specified) | 5.94
16 | CC(C)NCCNC(C)C | 10.4
17 | O=Cc1ccncc1 | 4.63
18 | CN(C)C1CC(C)(C)NC(C)(C)C1 | 10.6
19 | CN(C)c1ccc2cc3ccc(N(C)C)cc3[nH+]c2c1 | 0.4
20 | c1ccc(-c2ccccn2)nc1 | 4.42
21 | Nc1cccc2nn([C@@H]3C[C@@H](O)[C@H](CO)O3)nc12 | 2.4
22 | N[C@@H]1C[C@H]2CCCC[C@@H]2C[C@@H]1[NH3+] | 6.36

Row | SMILES | pKa
23 | c1ccc(CN(CC2CO2)CC2CO2)cc1 (stereo unspecified) | 5.75
24 | C[NH+](C)CCC/N=C(\c1ccccc1)c1ccccc1O | 3.31
25 | CN=C1CCCCC1 | 9.43
26 | Nc1nc2nc[nH]c2c(N)[n+]1[O-] | 3.7
27 | Cc1nc2cccc([N+](=O)[O-])c2c(NCCC[NH+](C)C)c1C | 6.64
28 | Cn1c(=O)c2[nH]cnc2n(C)c1=O | 8.64
29 | Oc1ccc2c(c1)Nc1ccccc1N2 | 1.8
30 | c1ccc2c(c1)cnc1ccccc12 | 4.58
31 | COc1ccc(-c2ncc(-c3ccccc3)o2)cc1 | 1.25
32 | CC(C)c1ccccn1 | 5.83
33 | CN1[C@@H]2CC[C@H]1[C@H](C(=O)[O-])[C@@H](O)C2 | 9.7
34 | CN(C)c1cc[n+](O)cc1 | -7.58
35 | Cn1cncc1C[C@H](NC(=O)CC[NH3+])C(=O)[O-] | 7.08
36 | Nc1nnnn1-c1ccccc1 | 1.12
37 | Cc1cccc(Nc2ccccc2)c1 | 0.92
38 | COC(=O)c1ccccc1N(C)C | 5.55
39 | Nc1nc2c(o1)CCCC2 | 5.75
40 | COc1ccc(C(=N)c2ccccc2)c(OC)c1 | 8.3
41 | NCc1cccnc1 | 8.33
42 | NC1CCc2ccccc2C1 (stereo unspecified) | 9.97
43 | NCCCCc1cccnc1 | 10.2
44 | [NH3+]CCC(=O)N[C@@H](Cc1c[nH]cn1)C(=O)[O-] | 6.89

Row | SMILES | pKa
45 | O=C([O-])C(CO)NCc1cc(Cl)ccc1[O-] (stereo unspecified) | 10.2
46 | C(=C\c1nnnn1-c1ccccc1)/c1ccccc1 | -2.3
47 | FC(F)(F)c1cc(-c2ccccc2)nnc1NCCN1CCOCC1 | 6.75
48 | c1c(CN2CCNCC[NH2+]CC2)n[nH]c1CN1CCNCCNCC1 | 10.5
49 | N[C@@H](Cc1c[nH]cn1)C(=O)N[C@@H](Cc1c[nH]cn1)C(=O)[O-] | 7.8
50 | CCN(C)CCOCCN(CC)CC | 10.1
51 | Cc1ccccc1NC1CCCCC1 | 5.34
52 | CCCNC(=O)[C@H](Cc1c[nH]c[nH+]1)NC(=O)c1cccc(CNCC[NH3+])n1 | 5.9
53 | c1ccc(CC2=NCCC2)cc1 | 6.9
54 | CN(C)c1ccc2cc3c(ccc4ccccc43)nc2c1 | 7.31
55 | CCN(CC)Cc1cc(Br)ccc1[O-] | 10.7
56 | CCC(=O)C(C[C@H](C)N1CCOCC1)(c1ccccc1)c1ccccc1 | 6.73
57 | Nc1ncnc2c1cnn2CCO | 4.29
58 | Cc1n[nH]cc1Cl | 1.4
59 | O=C([O-])CSc1nc2cc3ccccc3cc2[nH]1 | 4.68
60 | NC(=O)/C=C(\O)c1ccccn1 | 8.23
61 | COc1nc2ccccc2nc1C | 1.38
62 | CCCCC1CCCN1C (stereo unspecified) | 10
63 | CN(C)CCBr | 7.55
64 | Cc1ccc(NC(=O)CN2CCCCC2)c(C)c1 | 7.8
65 | c1ccc(C(OCCN2CCCCC2)c2ccccc2)cc1 | 8.03
66 | Cn1cncn1 | 2.31

Row | SMILES | pKa
67 | Cc1cnccc1N | 9.15
68 | Cc1cnc2c(c1)c(C)cc1c(C)ccnc12 | 5.9
69 | Cc1cccnc1N | 7.24
70 | O/C(=C\c1ccccn1)c1ccccc1 | 4.52
71 | Nc1ccc(-c2nc3ccccc3s2)cc1 | 3
72 | CC(C)(C)NNC(C)(C)C | 8.31
73 | [NH3+]NC(=O)c1ccncc1 | 1.85
74 | CCN(N)CC | 7.63
75 | FC(F)(F)c1ccc2cccnc2c1 | 3.16
76 | CC1=Nc2ccccc2CO1 | 4.64
77 | c1ccc(N=P(c2ccccc2)(c2ccccc2)c2ccccc2)cc1 | -0.92
78 | [S-]c1ccnc([S-])[nH+]1 | 6.46
79 | COc1cc(S(C)=O)ccc1-c1nc2ncccc2[nH]1 (stereo unspecified) | 3.91 and 3.89
80 | CC(C)CNc1ccccc1 | 4.84
81 | CCN(CC)CCNc1cc(Nc2ccc(Cl)cc2)nc(C)n1 | 9.3
82 | C[NH+]1CCCC1c1ccc(Cl)nc1 (stereo unspecified) | -1.3
83 | COc1ccc2[nH]c3c(c2c1)CCN=C3C | 9.21
84 | COc1cc(N)cc(C(=O)N[C@@H]2C[C@H]3CC[C@@H](C2)N3Cc2ccccc2)c1OC | 9.07
85 | N#CCN1CCOCC1 | 2
86 | CCCCCN(CCO)CC(C)O (stereo unspecified) | 8.9
